Test results from publication PMC3622158 (Photochemistry and photobiology, 2013).

Legend:
red blood cells (RBCs) [1] = experiment: Fluorescence and bright field microscopy of RBCs and ghosts; format: cell-based; details: Figure 2A; for association with RBCs prior to irradiation (fluorescence distribution): RBCs incubated with compound, fluorescence microscopy; for morphology of RBCs incubated with compound before irradiation: bright field microscopy
[2] = in aqueous solution; standards of the RNO assay; cited from earlier work
red blood cells (RBCs) [3] = experiment: Photohemolysis assay of fluorescently labeled CPPs; format: cell-based; details: singlet oxygen quencher/inhibitor added to TMR-TAT and RBCs; Figure 1B
red blood cells (RBCs) [4] = test system: red blood cells (RBCs)

Molecule	association with RBCs prior to irradiation (fluorescence distribution) (red blood cells (RBCs) [1])	morphology of RBCs incubated with compound before irradiation (red blood cells (RBCs) [1])	singlet oxygen quantum yield [2]	effect on TMR-TAT mediated photohemolysis (red blood cells (RBCs) [3])	other results
O=C1OC2(c3cc(I)c(O)c(I)c3Oc3c2cc(I)c(O)c3I)c2c(Cl)c(Cl)c(Cl)c(Cl)c21 [RB, Rose Bengal]	strong fluorescence signals were present on the surface of the cells	formed echinocytes	0.76		
CC(/C=C/C=C(\C)C(=O)O)=C\C=C\C=C(C)\C=C\C=C(/C)C(=O)O [crocetin]				significant decrease in photohemolytic activity	
O=C1OC2(c3ccccc31)c1cc(Br)c(O)c(Br)c1Oc1c2cc(Br)c(O)c1Br [eosin Y]			0.57		
CC(=O)Oc1c(C)c(C)c2c(c1C)CCC(C)(CCC[C@H](C)CCC[C@H](C)CCCC(C)C)O2 (stereo partly drawn) [tocopherol, α-tocopheryl acetate]				significant decrease in photohemolytic activity	
GRRRRRRRRR-NH2 [R9]					lysis with RB and peptide co-incubated (red blood cells (RBCs) [4]; RB and R9 co-incubated during irradiation, same conditions, data not shown): 93±3%; lytic effect of peptides alone (red blood cells (RBCs) [4]; in the dark or when cells were irradiated without RB present): not lytic by themselves
CC1=C(CCC(=O)O)c2cc3[nH]c(cc4nc(cc5[nH]c(cc1n2)c(C)c5C(C)O)C(C)=C4C(C)O)c(C)c3CCC(=O)O (stereo not shown) [HP, hematoporphyrin]	strong fluorescence signals were present on the surface of the cells	formed echinocytes			
